Data: EP4660196A1, “CRYSTAL FORM OF COMPOUND, PREPARATION METHOD THEREFOR AND USE THEREOF” (Felicamed Biotechnology Co., Ltd., priority 2023, dated 2024)
“And” between values parts separate entries of the source, which are not always exact repeats. Equal entries are not always repeated.

Assay: Pharmacokinetics of free crystal form A in Beagle dogs (i.v. and intragastric)
Assay type: in vivo
Details: dog
Experimental: Preparations were administered to the group C on the second day to the seventh day were prepared in the same way as that on the first day.
All the animals in this experiment were randomly divided into 4 groups (3 dogs/sex/group). The animals in the group A, the group B, and the group D were fasted before administration, and the animals in the group C were fasted before the first administration and the last administration. All the animals were fasted for at least 12 h before administration, and food was resumed 4 h after administration. All the animals had free access to water and food during the experiment. Table 25 Animal groups and administration methods
The animals in the group A were intravenously injected with the drug at 2 mg/kg, and blood samples were collected from the jugular vein before and 0.033 h, 0.083 h, 0.25 h, 0.5 h, 1 h, 2 h, 4 h, 8 h, 12 h, and 24 h after administration. The animals in the group B and the group D received single intragastric administration of the drugs at 2 mg/kg and 20 mg/kg, respectively, and blood samples were collected from the jugular vein before and 0.083 h, 0.25 h, 0.5 h, 1 h, 2 h, 4 h, 8 h, 12 h, and 24 h after administration. […] Blood samples were collected from the jugular vein before the first administration and the seventh administration and 0.083 h, 0.25 h, 0.5 h, 1 h, 2 h, 4 h, 8 h, 12 h, and 24 h after administration. Blood samples were collected from the jugular vein before administration and 0.5 h after administration from the second administration to the sixth administration. The sample collected before the second administration was the sample collected 24 h after the first administration.
The blood samples from the animals were collected through the jugular vein, with a blood sample volume of 0.5 mL/time. All collected whole blood samples were placed in centrifuge tubes containing ethylene diamine tetraacetic acid potassium salt (EDTA-K2), and the centrifuge tubes were turned upside down to allow the anticoagulant and blood to be fully mixed. All the samples were placed on wet ice before centrifugation and centrifuged at 1524 g for 10 min to separate plasma. The plasma samples were transferred to new centrifuge tubes and stored at -90°C to […] until analysis.
The drug concentration in the plasma of each Beagle dog was determined by liquid chromatography with tandem mass spectrometry (LC-MS/MS). The obtained plasma concentration data was analyzed by using the pharmacokinetic processing software WinNonlin 8.0 with a non-compartmental model to calculate relevant pharmacokinetic parameters.

## CC[S@@](=N)(=O)C[C@H]1CC[C@H](N(C)c2ncnc3[nH]ccc23)CC1 [Free crystal form A]
In vivo
  AUC0-t of the unit dose: 4380 ng·kg·h/mL/mg and 4990 ng·kg·h/mL/mg and 5030 ng·kg·h/mL/mg
  clinical observation: no obvious abnormalities were found
  male-to-female ratio of AUC0-t: 1.10 and 0.716 and 0.877
  male-to-female ratio of Cmax: 1.36 and 0.810 and 0.894
  ratio of AUC0-t of the seventh administration and the first administration: 0.887
  ratio of Cmax of the seventh administration and the first administration: 0.964
  unit dose AUC0-t ratio of 20 mg/kg and 2 mg/kg: 1.15
  unit dose Cmax: 675 kg·ng/mL/mg and 785 kg·ng/mL/mg and 665 kg·ng/mL/mg
  unit dose Cmax ratio of 20 mg/kg and 2 mg/kg: 0.985
In vivo, iv, 2 mg/kg
  steady-state volume of distribution (Vdss) relative to total body fluid volume: 1.57 times
  total clearance (CL) relative to liver blood flow: 0.110 times
plasma, po, read-out: average time to peak drug concentration
  Tmax: 0.792 to 1.33 h
